Bounds are passed on as bounds.

One experiment deals with T1, human mGluR5 (Homo sapiens, UniProt P41594).
T1 construct: expressed in transfected cells; host or cells: HEK293 cells stably expressing rat GLAST (EAAT1), stably transfected with pcDNAzeo3.1 carrying synthetic human mGluR5 DNA; zeocin-selected single clones
T1 sequence (P41594 21-1212): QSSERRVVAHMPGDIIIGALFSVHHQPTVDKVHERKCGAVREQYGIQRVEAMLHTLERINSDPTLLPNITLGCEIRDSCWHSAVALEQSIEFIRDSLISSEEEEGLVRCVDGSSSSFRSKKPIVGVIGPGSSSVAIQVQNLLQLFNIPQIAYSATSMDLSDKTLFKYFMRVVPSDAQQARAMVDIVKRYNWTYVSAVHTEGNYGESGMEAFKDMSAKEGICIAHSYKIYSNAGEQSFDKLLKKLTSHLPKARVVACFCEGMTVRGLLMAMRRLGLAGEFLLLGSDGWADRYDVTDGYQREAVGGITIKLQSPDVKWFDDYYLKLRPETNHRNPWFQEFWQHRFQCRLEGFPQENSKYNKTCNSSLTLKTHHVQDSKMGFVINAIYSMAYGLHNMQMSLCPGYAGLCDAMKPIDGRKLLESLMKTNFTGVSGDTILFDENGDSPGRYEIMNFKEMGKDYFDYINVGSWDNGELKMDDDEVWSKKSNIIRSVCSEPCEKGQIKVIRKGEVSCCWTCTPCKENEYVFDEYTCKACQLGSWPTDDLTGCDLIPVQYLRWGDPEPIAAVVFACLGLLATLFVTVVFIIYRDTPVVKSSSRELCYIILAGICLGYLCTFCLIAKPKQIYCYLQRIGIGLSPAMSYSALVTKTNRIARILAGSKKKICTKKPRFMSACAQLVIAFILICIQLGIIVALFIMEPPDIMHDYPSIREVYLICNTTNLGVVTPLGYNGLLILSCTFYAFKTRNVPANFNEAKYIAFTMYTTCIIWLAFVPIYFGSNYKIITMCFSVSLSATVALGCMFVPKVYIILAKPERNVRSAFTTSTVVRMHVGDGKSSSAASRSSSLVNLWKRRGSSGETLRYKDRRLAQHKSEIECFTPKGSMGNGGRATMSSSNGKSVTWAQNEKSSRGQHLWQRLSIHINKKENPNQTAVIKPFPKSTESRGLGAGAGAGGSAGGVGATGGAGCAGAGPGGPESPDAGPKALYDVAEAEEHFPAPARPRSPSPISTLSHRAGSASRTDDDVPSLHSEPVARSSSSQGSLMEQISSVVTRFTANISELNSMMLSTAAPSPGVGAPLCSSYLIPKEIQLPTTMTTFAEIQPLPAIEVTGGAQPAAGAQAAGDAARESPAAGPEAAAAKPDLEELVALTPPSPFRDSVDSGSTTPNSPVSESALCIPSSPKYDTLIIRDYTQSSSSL
Kind of experiment: In vitro cell-based FLIPR calcium assay for positive modulation of the activation of mGluR5 by glutamate (PAM EC50). As to conditions: HEK293/GLAST cells expressing recombinant human mGluR5; FLIPR calcium signal; glutamate added at its EC20; read-out: mGluR5 PAM EC50. A digest of the protocol:
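PAM activity was measured as FLIPR calcium fluorescence in the presence of an EC20 glutamate concentration determined daily from a glutamate concentration-response curve. Cells were HEK293/GLAST clones expressing mGluR5, dye-loaded at 25 °C for 45–60 min in HEPES-buffered HBSS; vehicle control was 0.3% DMSO.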
Consider `CN1Cc2nc3cc(C#Cc4ccccn4)ccc3c(=O)n2CC1(C)C` [Example 5.18, 2,3,3-trimethyl-9-(pyridin-2-ylethynyl)-3,4-dihydro-1H-pyrazino[2,1-b]quinazolin-6(2H)-one], for which the concentration giving a half-maximal response (EC50) (in general, the concentration that produces a half-maximal response) fell in the range of 300 to 1000 nM.
On the same count and under the same terms, in the case of `O=C(Nc1ccc(F)cc1)c1ccc2c(c1)N=C1CCCCCCN1C2` [Example 26.1, N-(4-fluorophenyl)-7,8,9,10,11,13-hexahydro-6H-azocino[2,1-b]quinazoline-3-carboxamide] it was 300 to 1000 nM.
Same read-out and setting: in the case of `CC1CCc2nc3cc(C#Cc4cccc(C#N)n4)ccc3c(=O)n2CC1` (centres unmarked) [Example 6.47, 6-((8-methyl-12-oxo-6,7,8,9,10,12-hexahydroazepino[2,1-b]quinazolin-3-yl)ethynyl)picolinonitrile] it was 30 to 100 nM; in that of `O=c1c2ccc(C#Cc3ccccn3)cc2nc2n1CCC(C(F)(F)F)CC2` (centres unmarked) [Example 6.38, 3-(pyridin-2-ylethynyl)-8-(trifluoromethyl)-7,8,9,10-tetrahydroazepino[2,1-b]quinazolin-12(6H)-one], 30 to 100 nM; in that of `CC(C)CC1CCCCc2nc3cc(C#Cc4ccc(F)cc4)ccc3c(=O)n21` (centres unmarked) [Example 6.32, 3-((4-fluorophenyl)ethynyl)-10-isobutyl-7,8,9,10-tetrahydroazepino[2,1-b]quinazolin-12(6H)-one], 100 to 300 nM.
Turning to `O=c1c2ccc(C#Cc3ccccn3)cc2nc2n1CCC(F)CC2` (centres unmarked) [Example 6.46, 8-fluoro-3-(pyridin-2-ylethynyl)-7,8,9,10-tetrahydroazepino[2,1-b]quinazolin-12(6H)-one], the half-maximal effective concentration (EC50) is under 10 nM.
Still for that read-out and setting: in the case of `COC1(C)CCc2nc3cc(C#Cc4ccccn4)ccc3c(=O)n2CC1` (centres unmarked) [Example 6.50, 8-methoxy-8-methyl-3-(pyridin-2-ylethynyl)-7,8,9,10-tetrahydroazepino[2,1-b]quinazolin-12(6H)-one] it was 30 to 100 nM.
Consider `COCC1CCc2nc3cc(C#Cc4cccc(F)c4)ccc3c(=O)n21` (centres unmarked) [Example 3.6, 6-((3-fluorophenyl)ethynyl)-1-(methoxymethyl)-2,3-dihydropyrrolo[2,1-b]quinazolin-9(1H)-one], for which the EC50 is under 10 nM.
On to `CC1Cc2nc3cc(C#Cc4ccccn4)ccc3c(=O)n2CCN1C` (centres unmarked) [Example 8.28, 3,4-dimethyl-8-(pyridin-2-ylethynyl)-2,3,4,5-tetrahydro-[1,4]diazepino[7,1-b]quinazolin-11(1H)-one], for which the EC50 lay in the range of 300 to 1000 nM.
Turning to `O=c1c2ccc(C#Cc3cccc(F)c3)cc2nc2n1CC1(CC2)OCCO1` [Example 4.21, 3′((3-fluorophenyl)ethynyl)-6′,7′-dihydrospiro[[1,3]dioxolane-2,8′-pyrido[2,1-b]quinazolin]-11′(9′H)-one], the EC50 was in the range of 10 to 30 nM.
As for `O=c1c2ccc(C#Cc3ccccn3)cc2nc2n1CCC1CC21` (centres unmarked) [Example 4.43, 8-(pyridin-2-ylethynyl)-1,2,3,10b-tetrahydrocyclopropa[3,4]pyrido[2,1-b]quinazolin-5(1aH)-one], the EC50 lay within 10 to 30 nM.
On the same count and under the same terms, in the case of `CC1(C)CCn2c(nc3cc(CCc4ccccn4)ccc3c2=O)C1` [Example 21.6, 7,7-dimethyl-3-(2-(pyridin-2-yl)ethyl)-8,9-dihydro-6H-pyrido[2,1-b]quinazolin-11(7H)-one] it was 300 to 1000 nM.
Take `Cn1cnc2cc(C#Cc3ccccc3)ccc2c1=O` [Example 1.3, 3-methyl-7-(phenylethynyl)quinazolin-4(3H)-one]: the EC50 is 100 to 300 nM.
Still for that read-out and setting: in the case of `O=C1CCn2c(nc3cc(C#Cc4cccc(F)c4)ccc3c2=O)CCN1` [Example 10.6, 11-((3-fluorophenyl)ethynyl)-2,3,5,6-tetrahydro-1H-[1,5]diazocino[2,1-b]quinazoline-4,8-dione] it was 30 to 100 nM; in that of `O=c1c2ccc(C#Cc3ccncc3F)cc2nc2n1CCC1(CC2)OCCO1` [Example 7.16], 100 to 300 nM.
In the case of `CC1(C)CCCc2nc3cc(C#Cc4ccccn4)ccc3c(=O)n2C1` [Example 6.43, 9,9-dimethyl-3-(pyridin-2-ylethynyl)-7,8,9,10-tetrahydroazepino[2,1-b]quinazolin-12(6H)-one], the EC50 was 10 to 30 nM.
Still for that read-out and setting: in the case of `O=c1c2ccc(CCc3ccccc3)cc2nc2n1CCCCC2` [Example 21.1, 3-phenethyl-7,8,9,10-tetrahydroazepino[2,1-b]quinazolin-12(6H)-one] it was 100 to 300 nM.
The same measure, in the same setting: in the case of `COCCc1nc2cc(C#Cc3cccc(F)c3)ccc2c(=O)n1C` [Example 2.1, 7-((3-fluorophenyl)ethynyl)-2-(2-methoxyethyl)-3-methylquinazolin-4(3H)-one] it was under 10 nM; in that of `O=c1c2ccc(C#Cc3cccs3)cc2nc2n1CCC1(CC2)OCCO1` [Example 7.57], 30 to 100 nM; in that of `Cn1c(CN2CCCC2)nc2cc(C#Cc3cccc(F)c3)ccc2c1=O` [Example 2.6, 7-((3-fluorophenyl)ethynyl)-3-methyl-2-(pyrrolidin-1-ylmethyl)quinazolin-4(3H)-one], 100 to 300 nM.
With `CC1CCc2nc3cc(C#Cc4ccccn4)cnc3c(=O)n2CC1` (single isomer, unassigned) [11.9a/11.9b faster moving enantiomer (fraction 1), 8-methyl-3-(pyridin-2-ylethynyl)-7,8,9,10-tetrahydropyrido[3′,2′: 4,5]pyrimido[1,2-a]azepin-12(6H)-one], the concentration for a half-maximal effect (EC50) was in the range of 30 to 100 nM.
For the molecule `C=C1CCc2nc3cc(C#Cc4cccc(F)c4)ccc3c(=O)n2C1` [Example 4.28, 3-((3-fluorophenyl)ethynyl)-8-methylene-8,9-dihydro-6H-pyrido[2,1-b]quinazolin-11(7H)-one], the EC50 was in the range of 10 to 30 nM.
`O=c1c2ccc(C#Cc3cccc(F)c3)cc2ncn1CC1CC1` [Example 1.8, 3-(cyclopropylmethyl)-7-((3-fluorophenyl)ethynyl) quinazolin-4(3H)-one]: the EC50 was in the range of 30 to 100 nM.
As to `CC1(C)Cc2nc3cc(C#Cc4ccccn4)ccc3c(=O)n2C1` [Example 3.20, 2,2-dimethyl-6-(pyridin-2-ylethynyl)-2,3-dihydropyrrolo[2,1-b]quinazolin-9(1H)-one], the concentration giving a half-maximal response (EC50) was under 10 nM.
Regarding `O=c1c2ccc(C#Cc3ccccn3)cc2nc2n1CC1CCCN1CC2` (centres unmarked) [Example 9.4, 9-(pyridin-2-ylethynyl)-2,3,5,6,14,14a-hexahydropyrrolo[2′,1′:3,4][1,4]diazepino[7,1-b]quinazolin-12(1H)-one], the concentration for a half-maximal effect (EC50) is 30 to 100 nM.
Turning to `O=c1c2ccc(C#Cc3cccc(F)c3)cc2nc2n1CCN(C1CCOC1)CC2` (centres unmarked) [Example 8.13, 8-((3-fluorophenyl)ethynyl)-3-(tetrahydrofuran-3-yl)-2,3,4,5-tetrahydro-[1,4]diazepino[7,1-b]quinazolin-11(1H)-one acetonitrile], the concentration for a half-maximal effect (EC50) lay within 100 to 300 nM.
Regarding `O=c1c2c(nc3cc(C#Cc4ccc(F)cc4)ccn13)CCCCC2` [Example 16.1, 3-((4-fluorophenyl)ethynyl)-7,8,9,10-tetrahydrocyclohepta[d]pyrido[1,2-a]pyrimidin-11(6H)-one], the EC50 is under 10 nM.
Regarding `Cc1cnc(NC(=O)c2ccc3c(=O)n4c(nc3c2)CCC(C)CC4)s1` (centres unmarked) [Example 23.1, 8-methyl-N-(5-methylthiazol-2-yl)-12-oxo-6,7,8,9,10,12-hexahydroazepino[2,1-b]quinazoline-3-carboxamide], the EC50 fell in the range of 100 to 300 nM.

Staying with this experiment, now noted: mGluR5 PAM EC50, HEK293/GLAST cells expressing recombinant human mGluR5; FLIPR calcium signal; glutamate added at its EC20.
`CC1(C)CCc2nc3cc(C#Cc4ccccn4)ccc3c(=O)n2CC1` [Example 6.40, 8,8-dimethyl-3-(pyridin-2-ylethynyl)-7,8,9,10-tetrahydroazepino[2,1-b]quinazolin-12(6H)-one]: the EC50 was under 10 nM.

For the origin of these results see patent US10077243B2, “Compounds for treating disorders mediated by metabotropic glutamate receptor 5, and methods of use thereof” (Sunovion Pharmaceuticals Inc., priority 2009, dated 2018).
